Our source for the IC50 values is patent publication US20210309677A1, “NOVEL AMINOPHOSPHINIC DERIVATIVES AS AMINOPEPTIDASE A INHIBITORS” (QUANTUM GENOMICS, priority 2018, published 2021).

One may read the IC50 as the midpoint of a concentration-inhibition curve.

In this experiment the target is T1, recombinant mouse APA (Mus musculus, UniProt P16406).
T1 sequence (P16406 1-945): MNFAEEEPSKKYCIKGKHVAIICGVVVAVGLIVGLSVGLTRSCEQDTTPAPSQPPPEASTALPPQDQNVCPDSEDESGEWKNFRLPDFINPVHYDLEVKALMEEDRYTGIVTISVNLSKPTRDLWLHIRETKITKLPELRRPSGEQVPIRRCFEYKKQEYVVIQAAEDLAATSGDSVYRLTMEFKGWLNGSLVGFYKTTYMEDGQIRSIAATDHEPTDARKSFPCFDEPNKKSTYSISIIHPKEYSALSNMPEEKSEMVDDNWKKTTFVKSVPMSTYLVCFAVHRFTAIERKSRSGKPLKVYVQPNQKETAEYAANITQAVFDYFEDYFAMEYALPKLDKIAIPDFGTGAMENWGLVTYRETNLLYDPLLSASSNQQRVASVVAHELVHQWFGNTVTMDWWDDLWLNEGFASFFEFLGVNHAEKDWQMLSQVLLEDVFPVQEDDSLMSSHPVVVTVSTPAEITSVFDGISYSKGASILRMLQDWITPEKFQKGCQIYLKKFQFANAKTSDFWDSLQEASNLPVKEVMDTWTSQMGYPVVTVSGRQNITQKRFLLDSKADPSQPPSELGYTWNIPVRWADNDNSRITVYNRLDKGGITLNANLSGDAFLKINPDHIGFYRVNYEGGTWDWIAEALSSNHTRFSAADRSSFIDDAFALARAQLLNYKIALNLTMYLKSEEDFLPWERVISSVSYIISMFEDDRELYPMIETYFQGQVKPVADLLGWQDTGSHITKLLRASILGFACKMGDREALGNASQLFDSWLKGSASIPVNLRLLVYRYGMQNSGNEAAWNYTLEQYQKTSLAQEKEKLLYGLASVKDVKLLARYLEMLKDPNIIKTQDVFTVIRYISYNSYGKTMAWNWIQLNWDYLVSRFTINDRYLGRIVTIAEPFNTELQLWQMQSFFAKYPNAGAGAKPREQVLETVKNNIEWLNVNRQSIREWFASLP
In words: Measurement of APA activity in vitro (hydrolysis of GluβNa, colorimetric). The experiment is classed as biochemical. The settings on record: 200 μM Glu-βNa, pH 7.4, 37° C., 4 mM CaCl2, read-out: In vitro inhibition of aminopeptidase A, IC50 classification. The text has this: Measurement of APA activity in vitro is based on the protocol of Goldbarg adjusted to the scale of assaying on microplates (Pro Bind™ 3915) (Chauvel et al., 1994). In vitro, in the presence of calcium ions, APA hydrolyses a synthetic substrate α-L-glutamyl-β-naphthylamide (GluβNa) to glutamate and β-naphthylamine ((βNa). A diazotation reaction in acidic medium makes it possible to reveal the β-naphthylamine by formation of a violet-coloured complex: spectrophotometric measurement then makes it possible to know the amount of complex formed and, by reference to a standard curve produced with increasing concentrations of β-naphthylamine, to deduce the enzymatic activity of the sample.
The Glu-βNa substrate (Bachem) and the β-naphthylamine (Sigma) are dissolved in 50% DMSO (dimethyl sulphoxide) and 0.1 N HCl respectively, and conserved at −20° C. at a concentration of 10^−2 M. The diazotation reaction is carried out in the presence of sodium nitrite (87 mM), ammonium sulfamate (130 mM) and N-(1-naphthyl)-ethylenediamine dihydrochloride (23 mM in 95% ethanol).
The reaction takes place at pH 7.4 in 50 mM tris-HCl buffer, in the presence of calcium (4 mM CaCl2); recombinant mouse APA is incubated at 37° C. in the presence of the substrate (200 μM Glu-βNa) and in the presence or absence of various concentrations of the inhibitor to be tested, in a final volume of 100 μL. The reaction is stopped by adding 10 μL, of 3N HCl. A standard curve of β-naphthylamine was prepared in parallel by diazotizing increasing concentrations (up to 0.2 mM) of 2-naphthylamine in 0.1 N HCl.
The following are added to each well: 25 μL of sodium nitrite (NaNO2) (mix, wait 5 minutes at room temperature), 50 μI, of ammonium sulfamate (mix, wait 5 minutes at room temperature), then add 25 μL of N-(1-naphthyl) ethylenediamine dihydrochloride (mix, wait for stabilization of the violet colour for approximately 30 minutes at 37° C.). The absorbance is then measured at 540 nm.
The compound EC33 ((S)-3 amino-4-mercapto-butylsulfonic acid) described in application WO 99/36066 was used as a reference compound.
Take `N[C@H](CS)CCS(=O)(=O)O` [EC33, (S)-3 amino-4-mercapto-butylsulfonic acid, reference compound]: the concentration for half-maximal inhibition (IC50) was in the range of 300 to 10000 nM.

Regarding `CC(C)CCP(=O)(O)C(N)CCC(=O)O` (centres unmarked) [Example 1, 4-amino-4-[hydroxy(3-methylbutyl)phosphoryl]butanoic acid], the 50% inhibitory concentration (IC50) lay within 30 to 300 nM.

Consider `CC(C)CCCP(=O)(O)C(N)CCC(=O)O` (centres unmarked) [Example 2, 4-amino-4-[hydroxy(4-methylpentyl)phosphoryl]butanoic acid], for which the IC50 was 30 to 300 nM.

Turning to `CC(C)CCCCP(=O)(O)C(N)CCC(=O)O` (centres unmarked) [Example 3, 4-amino-4-[hydroxy(5-methylhexyl)phosphoryl]butanoic acid], the concentration for half-maximal inhibition (IC50) lay in the range of 30 to 300 nM.

Turning to `CCCCCP(=O)(O)C(N)CCC(=O)O` (centres unmarked) [Example 4, 4-amino-4-[hydroxy(pentyl)phosphoryl]butanoic acid], the IC50 lay in the range of 30 to 300 nM.

As for `CCCCCCP(=O)(O)C(N)CCC(=O)O` (centres unmarked) [Example 5, 4-amino-4-[hexyl(hydroxy)phosphoryl]butanoic acid], the 50% inhibitory concentration (IC50) fell in the range of 30 to 300 nM.

In the case of `NC(CCC(=O)O)P(=O)(O)CCCC(F)(F)F` (centres unmarked) [Example 6, 4-amino-4-[hydroxy(4,4,4-trifluorobutyl)phosphoryl]butanoic acid], the IC50 lay in the range of 30 to 300 nM.

Regarding `NC(CCC(=O)O)P(=O)(O)CCC1CCCCC1` (centres unmarked) [Example 7, 4-amino-4-[(2-cyclohexylethyl)(hydroxy)phosphoryl]butanoic acid], the IC50 was 30 to 300 nM.

As to `NC(CCC(=O)O)P(=O)(O)CC1CCC1` (centres unmarked) [Example 8, 4-amino-4-[(cyclobutylmethyl)(hydroxy)phosphoryl]butanoic acid], the IC50 was below 30 nM.

For the molecule `NC(CCC(=O)O)P(=O)(O)CC1CCCC1` (centres unmarked) [Example 9, 4-amino-4-[(cyclopentylmethyl)(hydroxy)phosphoryl]butanoic acid], the IC50 was below 30 nM.

In the case of `NC(CCC(=O)O)P(=O)(O)CC1CCCCC1` (centres unmarked) [Example 10, 4-amino-4-[(cyclohexylmethyl)(hydroxy)phosphoryl]butanoic acid], the 50% inhibitory concentration (IC50) is below 30 nM.
